Measurements reported in US20230212549A1, “COMPOUNDS COMPRISING A […] LIGAND AND USE THEREOF” (priority 2021, published 2023).
Numbered stars: 1 amine (or outer) side, 2 acyl side, 3 side chain; on linkers, the order of the positions; unused ones are H or OH. Bridge positions count the residues as written; N and C are the ends. Square brackets hold non-standard residues; d marks the D form. Peptide text beside a SMILES is read from it. * marks the point of attachment. X13 = O=C(O)CN1CCN(CC(=O)O)CCN(CC(=O)N2CCN(Cc3cc(C[*:1])cc(C[*:2])c3)CC2)CCN(CC(=O)O)CC1; X12 = O=C(O)CN1CCN(CC(=O)O)CCN(CC(=O)NCCCOCCOCCOCCCN*)CCN(CC(=O)O)CC1; mXylylene = c1cc(C[*:1])cc(C[*:2])c1; Suc = O=C(CCC(=O)[*:2])[*:1]; Nle = CCCC[C@H](N)C(=O)O; Hexanoyl = CCCCCC(=O)*; Mpa = O=C(O)CCS

Experiments:
HEK-FAP tumors = assay: Efficacy study, HEK-FAP tumor model; settings: throughout the study, 30 or 60 MBq
Sarc4809 PDX tumors = assay: Efficacy study, sarcoma Sarc4809 PDX model; settings: throughout the study, 30 or 60 MBq
recombinant human PREP = target: T1, recombinant human PREP (Homo sapiens, UniProt P48147); assay: PREP protease activity assay; type: biochemical
T1 construct: purchased R&D systems 4308-SE
T1 sequence (P48147 1-710): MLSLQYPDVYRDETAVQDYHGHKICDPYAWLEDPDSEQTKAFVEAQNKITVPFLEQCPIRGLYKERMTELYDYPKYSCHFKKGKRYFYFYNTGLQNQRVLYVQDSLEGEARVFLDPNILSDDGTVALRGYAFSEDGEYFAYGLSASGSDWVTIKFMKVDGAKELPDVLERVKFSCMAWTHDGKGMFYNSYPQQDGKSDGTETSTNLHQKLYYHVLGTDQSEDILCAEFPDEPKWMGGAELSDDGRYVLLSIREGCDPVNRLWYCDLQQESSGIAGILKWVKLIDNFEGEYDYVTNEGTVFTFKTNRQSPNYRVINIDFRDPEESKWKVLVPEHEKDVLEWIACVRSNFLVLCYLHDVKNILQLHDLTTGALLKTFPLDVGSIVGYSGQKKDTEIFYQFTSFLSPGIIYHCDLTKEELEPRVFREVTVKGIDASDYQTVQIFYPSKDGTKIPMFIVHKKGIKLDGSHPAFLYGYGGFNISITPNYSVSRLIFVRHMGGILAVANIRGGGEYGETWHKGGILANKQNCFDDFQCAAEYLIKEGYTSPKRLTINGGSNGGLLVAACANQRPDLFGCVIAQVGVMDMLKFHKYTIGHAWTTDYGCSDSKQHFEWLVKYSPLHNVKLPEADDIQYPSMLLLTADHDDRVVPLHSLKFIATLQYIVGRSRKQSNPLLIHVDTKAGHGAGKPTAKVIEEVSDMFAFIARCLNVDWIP

Human recombinant FAP [1] = target: T2, Human recombinant FAP (Homo sapiens, UniProt Q12884); assay: Surface plasmon resonance (Biacore) assay; type: binding
[2] = Plasma stability assay, mouse plasma; type: in vitro ADME; settings: 37° C.
[3] = target: T3, FAP-expressing human WI-38 fibroblasts (Homo sapiens, UniProt Q12884); assay: Competitive FACS binding assay
T3 construct: FAP-expressing human WI-38 fibroblasts (ECACC) were cultured in EMEM; host or cells: WI-38 human fibroblasts
Description: Cells were analyzed in an Attune NxT flow cytometer. […] […].
Cells were analyzed in an Attune NxT flow cytometer. […]

Human recombinant FAP [4] = target: T2, Human recombinant FAP; assay: FRET-based FAP protease activity assay; type: biochemical; design: purchased R&D systems 3715-SE
Recombinant human DPP4 = target: T4, Recombinant human DPP4 (Homo sapiens, UniProt P27487); assay: DPP4 protease activity assay; type: biochemical
T4 construct: purchased R&D systems 9168-SE

[5] = 24 h incubation, 37° C.
[6] = target: Ca2+ channel (L, dihydropyridine site) (Rattus norvegicus, UniProt P22002); assay: biochemical; settings: read-out: % Inhibition of Specific Binding
[7] = 24 h incubation, 37° C.; remark: listed apart in the source
[8] = Pharmacokinetic study in rats (plasma, NCA); settings: rat, intravenous; for Vd: rat plasma
[9] = Pharmacokinetic study in mice (plasma, NCA); settings: mouse, intravenous; for Vd: mouse plasma
[10] = pIC50 Category (Activity), FRET-based FAP protease activity assay, recombinant human FAP, 37° C.

T4 sequence (P27487 whole entry): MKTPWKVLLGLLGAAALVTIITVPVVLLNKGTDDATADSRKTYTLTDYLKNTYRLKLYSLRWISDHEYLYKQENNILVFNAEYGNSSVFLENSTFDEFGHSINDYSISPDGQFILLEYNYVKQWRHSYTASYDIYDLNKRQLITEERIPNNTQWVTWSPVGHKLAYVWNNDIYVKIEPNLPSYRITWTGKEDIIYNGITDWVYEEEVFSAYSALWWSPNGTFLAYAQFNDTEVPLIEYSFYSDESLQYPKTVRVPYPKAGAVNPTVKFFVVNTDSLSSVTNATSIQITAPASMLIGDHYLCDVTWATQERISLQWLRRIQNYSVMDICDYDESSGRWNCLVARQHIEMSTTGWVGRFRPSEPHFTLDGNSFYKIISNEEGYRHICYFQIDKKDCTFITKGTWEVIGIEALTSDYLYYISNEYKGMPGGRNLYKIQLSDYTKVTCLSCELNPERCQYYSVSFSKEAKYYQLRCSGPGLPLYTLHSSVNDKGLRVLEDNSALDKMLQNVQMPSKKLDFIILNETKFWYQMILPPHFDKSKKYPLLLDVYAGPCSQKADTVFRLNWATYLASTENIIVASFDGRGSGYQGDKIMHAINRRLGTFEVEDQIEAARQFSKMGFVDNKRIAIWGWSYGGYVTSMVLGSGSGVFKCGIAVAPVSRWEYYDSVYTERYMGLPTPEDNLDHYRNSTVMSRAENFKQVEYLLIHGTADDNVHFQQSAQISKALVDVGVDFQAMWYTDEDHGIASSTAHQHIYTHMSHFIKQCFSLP
T2 sequence (Q12884 whole entry): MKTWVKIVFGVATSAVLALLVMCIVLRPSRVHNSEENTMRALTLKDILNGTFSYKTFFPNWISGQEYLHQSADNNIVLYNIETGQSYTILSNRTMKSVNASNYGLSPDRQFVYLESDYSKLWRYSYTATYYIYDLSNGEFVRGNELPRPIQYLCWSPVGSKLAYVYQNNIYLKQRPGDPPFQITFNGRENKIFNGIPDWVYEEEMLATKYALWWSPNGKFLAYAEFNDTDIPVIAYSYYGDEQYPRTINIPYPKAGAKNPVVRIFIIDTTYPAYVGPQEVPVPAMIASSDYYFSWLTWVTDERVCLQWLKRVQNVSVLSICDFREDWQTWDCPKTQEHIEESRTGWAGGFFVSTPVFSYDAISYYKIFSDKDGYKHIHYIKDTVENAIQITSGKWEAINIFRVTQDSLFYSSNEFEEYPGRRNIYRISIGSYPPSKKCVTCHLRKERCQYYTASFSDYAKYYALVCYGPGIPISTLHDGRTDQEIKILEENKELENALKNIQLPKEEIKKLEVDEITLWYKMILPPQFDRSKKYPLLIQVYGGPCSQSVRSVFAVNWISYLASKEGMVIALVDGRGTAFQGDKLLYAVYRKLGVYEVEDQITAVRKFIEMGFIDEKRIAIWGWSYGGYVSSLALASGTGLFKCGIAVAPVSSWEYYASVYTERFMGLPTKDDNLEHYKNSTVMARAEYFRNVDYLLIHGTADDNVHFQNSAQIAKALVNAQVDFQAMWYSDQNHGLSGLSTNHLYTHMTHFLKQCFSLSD
T3 sequence (Q12884 whole entry): as above
Sequence of Ca2+ channel (L, dihydropyridine site) (P22002 whole entry): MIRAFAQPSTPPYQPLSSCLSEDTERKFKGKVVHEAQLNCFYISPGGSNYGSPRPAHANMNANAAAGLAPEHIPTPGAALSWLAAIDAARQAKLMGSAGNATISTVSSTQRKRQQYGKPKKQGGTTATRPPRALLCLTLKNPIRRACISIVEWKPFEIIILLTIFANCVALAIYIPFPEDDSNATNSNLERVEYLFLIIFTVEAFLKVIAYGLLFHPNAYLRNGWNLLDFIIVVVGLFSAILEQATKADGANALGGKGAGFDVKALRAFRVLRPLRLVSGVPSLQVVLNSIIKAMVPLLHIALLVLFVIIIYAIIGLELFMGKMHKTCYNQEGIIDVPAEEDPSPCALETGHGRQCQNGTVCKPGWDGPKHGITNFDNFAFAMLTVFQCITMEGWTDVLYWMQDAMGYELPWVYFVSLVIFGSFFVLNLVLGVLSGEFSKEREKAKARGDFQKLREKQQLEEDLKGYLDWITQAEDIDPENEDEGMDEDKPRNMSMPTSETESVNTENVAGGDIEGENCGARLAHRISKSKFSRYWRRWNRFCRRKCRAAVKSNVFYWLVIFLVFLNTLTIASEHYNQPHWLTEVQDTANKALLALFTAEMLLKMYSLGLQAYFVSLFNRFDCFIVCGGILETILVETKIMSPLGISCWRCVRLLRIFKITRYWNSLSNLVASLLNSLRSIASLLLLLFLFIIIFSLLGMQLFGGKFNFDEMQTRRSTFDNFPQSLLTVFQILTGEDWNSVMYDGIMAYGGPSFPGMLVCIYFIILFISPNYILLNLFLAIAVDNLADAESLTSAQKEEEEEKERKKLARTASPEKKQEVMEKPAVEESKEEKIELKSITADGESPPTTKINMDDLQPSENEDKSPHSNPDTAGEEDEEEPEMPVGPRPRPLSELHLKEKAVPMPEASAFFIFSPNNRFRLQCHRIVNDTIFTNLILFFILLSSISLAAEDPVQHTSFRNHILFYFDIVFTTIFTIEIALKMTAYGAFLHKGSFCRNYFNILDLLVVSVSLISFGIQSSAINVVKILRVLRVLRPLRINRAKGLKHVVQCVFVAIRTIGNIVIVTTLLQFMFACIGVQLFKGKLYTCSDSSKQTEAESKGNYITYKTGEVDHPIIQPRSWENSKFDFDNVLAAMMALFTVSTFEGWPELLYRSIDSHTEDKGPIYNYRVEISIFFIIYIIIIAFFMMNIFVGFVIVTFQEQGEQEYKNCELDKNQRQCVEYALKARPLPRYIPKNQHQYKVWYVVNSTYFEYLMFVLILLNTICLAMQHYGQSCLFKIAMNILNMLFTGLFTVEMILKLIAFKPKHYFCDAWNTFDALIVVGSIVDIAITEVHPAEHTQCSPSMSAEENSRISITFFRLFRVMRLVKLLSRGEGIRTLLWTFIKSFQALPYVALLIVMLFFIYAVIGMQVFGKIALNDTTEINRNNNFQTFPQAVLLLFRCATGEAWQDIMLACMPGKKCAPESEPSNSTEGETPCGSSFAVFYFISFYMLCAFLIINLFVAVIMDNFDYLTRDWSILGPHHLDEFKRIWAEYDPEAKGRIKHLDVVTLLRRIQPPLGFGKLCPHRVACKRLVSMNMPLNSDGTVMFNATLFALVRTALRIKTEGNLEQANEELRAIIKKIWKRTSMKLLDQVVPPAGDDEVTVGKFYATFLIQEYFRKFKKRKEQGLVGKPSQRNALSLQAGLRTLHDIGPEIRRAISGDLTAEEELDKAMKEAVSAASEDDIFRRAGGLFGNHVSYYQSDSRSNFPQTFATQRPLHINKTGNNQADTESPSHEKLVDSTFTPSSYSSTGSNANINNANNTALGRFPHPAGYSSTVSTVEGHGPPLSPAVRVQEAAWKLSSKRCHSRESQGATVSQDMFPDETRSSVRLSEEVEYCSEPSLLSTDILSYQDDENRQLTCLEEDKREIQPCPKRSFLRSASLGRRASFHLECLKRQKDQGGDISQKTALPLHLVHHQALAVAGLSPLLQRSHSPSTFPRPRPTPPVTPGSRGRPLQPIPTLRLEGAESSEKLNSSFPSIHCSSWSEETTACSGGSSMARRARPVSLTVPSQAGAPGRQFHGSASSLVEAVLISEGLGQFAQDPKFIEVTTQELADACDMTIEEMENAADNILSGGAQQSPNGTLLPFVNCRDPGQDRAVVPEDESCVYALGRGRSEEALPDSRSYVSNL

CCCCCC(=O)N[C@H]1CSCc2cc(CSCCNC(=O)CN3CCN(CC(=O)O)CCN(CC(=O)O)CCN(CC(=O)O)CC3)cc(c2)CSC[C@@H](C(=O)O)NC(=O)[C@H](Cc2ccccc2)NC(=O)[C@H](CCC(N)=O)NC(=O)[C@H]([C@@H](C)O)NC(=O)[C@@H]2CCCN2C(=O)[C@@H]2CCCN2C1=O [^177Lu-3BP-3554, metal not drawn]
body weight loss (HEK-FAP tumors): No treatment-related body weight loss | body weight loss (BWL) (Sarc4809 PDX tumors): No treatment-related body weight loss

CCCC[C@H](NC(=O)CCC(=O)NCCCOCCOCCOCCCNC(=O)CN1CCN(CC(=O)O)CCN(CC(=O)O)CCN(CC(=O)O)CC1)C(=O)N[C@H]1CSCc2cccc(c2)CSC[C@@H](C(=O)N[C@@H](CC(=O)O)C(N)=O)NC(=O)[C@H](Cc2ccccc2)NC(=O)[C@H](CCC(=O)O)NC(=O)[C@H]([C@@H](C)O)NC(=O)[C@@H]2CCCN2C(=O)[C@@H]2CCCN2C1=O [3BP-3320, DOTA-Ttds-Nle-[Cys(3MeBn)-Pro-Pro-Thr-Glu-Phe-Cys]-Asp-NH2] ({X12-Suc}-[Nle]CPPTEFCD-NH2; linker 2-8 via mXylylene)
IC50 (recombinant human PREP): > 1000 nM | Kd (Human recombinant FAP [1]): < 10 nM | % intact compound remaining after incubation, Mouse plasma ([2]; 4 h incubation): 75% | IC50 [3]: 10 to 79.4 nM | IC50 (Human recombinant FAP [4]; [10]): < 10 nM | IC50 (Recombinant human DPP4): > 1000 nM

CCCCCC(=O)N[C@H]1CSCc2cc(cc(CN3CCN(C(=O)CN4CCN(CC(=O)O)CCN(CC(=O)O)CCN(CC(=O)O)CC4)CC3)c2)CSC[C@@H](C(=O)N[C@@H](CC(=O)O)C(N)=O)NC(=O)[C@H](Cc2ccccc2)NC(=O)[C@H](CCC(N)=O)NC(=O)[C@H]([C@@H](C)O)NC(=O)[C@@H]2CCCN2C(=O)[C@@H]2CCCN2C1=O [3BP-3407, Hex-[Cys(tMeBn(DOTA-PP))-Pro-Pro-Thr-Gln-Phe-Cys]-Asp-NH2] (Hexanoyl-CPPTQFCD-NH2; linker 1-7 via X13)
% intact compound remaining after incubation, Human plasma [5]: 100% (24 h) | inhibition at 10 µM [6]: 42% | % intact compound remaining after incubation, Rat plasma [7]: 100% (24 h)

CCCCCC(=O)N[C@H]1CSCc2cc(CSCCNC(=O)CN3CCN(CC(=O)O)CCN(CC(=O)O)CCN(CC(=O)O)CC3)cc(c2)CSC[C@@H](C(=O)O)NC(=O)[C@H](Cc2ccccc2)NC(=O)[C@H](CCC(N)=O)NC(=O)[C@H]([C@@H](C)O)NC(=O)[C@@H]2CCCN2C(=O)[C@@H]2CCCN2C1=O [3BP-3554, Hex-[Cys(tMeBn(DOTA-AET))-Pro-Pro-Thr-Gln-Phe-Cys]-OH]
% intact compound remaining after incubation, Human plasma [5]: 100% (24 h) | inhibition at 10 µM [6]: 54% | % intact compound remaining after incubation, Rat plasma [7]: 100% (24 h)

CCCCCC(=O)N[C@H]1CSCc2cc(cc(CN3CCN(C(=O)CN4CCN(CC(=O)O)CCN(CC(=O)O)CCN(CC(=O)O)CC4)CC3)c2)CSC[C@@H](C(=O)N[C@@H](CC(=O)O)C(N)=O)NC(=O)[C@H](Cc2ccccc2)NC(=O)[C@H](CCC(N)=O)NC(=O)[C@H]([C@@H](C)O)NC(=O)[C@@H]2CCCN2C(=O)[C@@H]2CCCN2C1=O [3BP-3590, Hex-[Cys(tMeBn(InDOTA-PP))-Pro-Pro-Thr-Gln-Phe-Cys]-Asp-NH2] (Hexanoyl-CPPTQFCD-NH2; linker 1-7 via X13)
% intact compound remaining after incubation, Human plasma [5]: 94% (24 h) | remaining at 24 h, 9.8 µM ([2]; mouse, plasma, 24 h incubation, read-out: % intact compound remaining after incubation, Mouse plasma): 100% | % intact compound remaining after incubation, Rat plasma [7]: 100% (24 h)

CCCC[C@H](NC(=O)CCC(=O)NCCCOCCOCCOCCCNC(=O)CN1CCN(CC(=O)O)CCN(CC(=O)O)CCN(CC(=O)O)CC1)C(=O)N[C@H]1CSCc2cccc(c2)CSC[C@@H](C(=O)N[C@@H](CC(=O)O)C(=O)N[C@@H](Cc2c[nH]cn2)C(=O)N[C@@H](Cc2ccccc2)C(=O)N[C@@H](CCCNC(=N)N)C(=O)N[C@@H](CC(=O)O)C(N)=O)NC(=O)[C@H](Cc2ccccc2)NC(=O)[C@H](CCC(=O)O)NC(=O)[C@H]([C@@H](C)O)NC(=O)[C@@H]2CCCN2C(=O)[C@@H]2CCCN2C1=O [3BP-3168, DOTA-Ttds-Nle-[Cys(3MeBn)-Pro-Pro-Thr-Glu-Phe-Cys]-Asp-His-Phe-Arg-Asp-NH2] ({X12-Suc}-[Nle]CPPTEFCDHFRD-NH2; linker 2-8 via mXylylene)
IC50 (recombinant human PREP): > 1000 nM | Kd (Human recombinant FAP [1]): < 10 nM | remaining at 4 h, 9.8 µM ([2]; mouse, plasma, 4 h incubation, read-out: % intact compound remaining after incubation, Mouse plasma): 100% | IC50 [3]: < 10 nM | IC50 (Human recombinant FAP [4]; pIC50 (highest activity categories), text on Table 9 categories (FACS binding and FAP activity assay)): < 10 nM | IC50 (Human recombinant FAP [4]; [10]): < 10 nM | IC50 (Recombinant human DPP4): > 1000 nM

C[C@@H](O)[C@@H]1NC(=O)[C@@H]2CCCN2C(=O)[C@@H]2CCCN2C(=O)CCSCc2cccc(c2)CSC[C@@H](C(=O)N[C@@H](CC(=O)O)C(N)=O)NC(=O)[C@H](Cc2ccccc2)NC(=O)[C@H](CCC(N)=O)NC1=O [3BP-3419, [3MeBn-Spa-Pro-Pro-Thr-Gln-Phe-Cys]-Asp-NH2] ([Mpa]PPTQFCD-NH2; linker 1-7 via mXylylene)
IC50 (recombinant human PREP): > 1000 nM | IC50 [3]: 100 to 794 nM | IC50 (Human recombinant FAP [4]; [10]): 100 to 794 nM | IC50 (Recombinant human DPP4): > 1000 nM

CCCCCC(=O)N[C@H]1CSCc2cccc(c2)CSC[C@@H](C(=O)N[C@@H](CCCCNC(=O)CN2CCN(CC(=O)O)CCN(CC(=O)O)CCN(CC(=O)O)CC2)CC(=O)O)NC(=O)[C@H](Cc2ccccc2)NC(=O)[C@H](CCC(N)=O)NC(=O)[C@H]([C@@H](C)O)NC(=O)[C@@H]2CCCN2C(=O)[C@@H]2CCCN2C1=O [3BP-3397, Hex-[Cys(3MeBn)-Pro-Pro-Thr-Gln-Phe-Cys]-Bhk(DOTA)-OH]
% intact compound remaining after incubation, Human plasma [5]: 100% (24 h)

CCCCCC(=O)N[C@H]1CSCc2cc(CSCCNC(=O)CN3CCN(CC(=O)O)CCN(CC(=O)O)CCN(CC(=O)O)CC3)cc(c2)CSC[C@@H](C(=O)O)NC(=O)[C@H](Cc2ccccc2)NC(=O)[C@H](CCC(N)=O)NC(=O)[C@H]([C@@H](C)O)NC(=O)[C@@H]2CCCN2C(=O)[C@@H]2CCCN2C1=O [3BP-3624, Hex-[Cys(tMeBn(LuDOTA-AET))-Pro-Pro-Thr-Gln-Phe-Cys]-OH]
% intact compound remaining after incubation, Human plasma [5]: 100% (24 h) | % intact compound remaining after incubation, Rat plasma [7]: 100% (24 h)

CCCCCC(=O)N[C@H]1CSCc2cc(CSCCNC(=O)CN3CCN(CC(=O)O)CCN(CC(=O)O)CCN(CC(=O)O)CC3)cc(c2)CSC[C@@H](C(=O)O)NC(=O)[C@H](Cc2ccccc2)NC(=O)[C@H](CCC(N)=O)NC(=O)[C@H]([C@@H](C)O)NC(=O)[C@@H]2CCCN2C(=O)[C@@H]2CCCN2C1=O [3BP-3623, Hex-[Cys(tMeBn(InDOTA-AET))-Pro-Pro-Thr-Gln-Phe-Cys]-OH]
AUC(0-inf) ([8]; 40 nmol/kg): 0.074 µM·h | C0 ([8]; 40 nmol/kg): 127 nM | clearance ([8]; 40 nmol/kg): 9.02 mL/min/kg | half-life ([8]; 40 nmol/kg): 45 min | Vd ([8]; 40 nmol/kg, Vss, 40 nmol/kg): 0.48 L/kg | Vd ([8]; 40 nmol/kg, Vz): 0.58 L/kg | AUC(0-inf) ([8]; 400 nmol/kg): 0.738 µM·h | C0 ([8]; 400 nmol/kg): 1410 nM | clearance ([8]; 400 nmol/kg): 9.03 mL/min/kg | half-life ([8]; 400 nmol/kg): 71 min | Vd ([8]; 400 nmol/kg, Vz): 0.93 L/kg | % intact compound remaining after incubation, Human plasma [5]: 100% (24 h) | % intact compound remaining after incubation, Rat plasma [7]: 100% (24 h) | AUC(0-inf) ([9]; 4 nmol/kg): 0.0077 µM·h | C0 ([9]; 4 nmol/kg): 17.6 nM | clearance ([9]; 4 nmol/kg): 8.63 mL/min/kg | half-life ([9]; 4 nmol/kg): 35 min | Vd ([9]; 4 nmol/kg, Vss, 4 nmol/kg): 0.36 L/kg | Vd ([9]; 4 nmol/kg, Vz): 0.44 L/kg | AUC(0-inf) ([9]; 40 nmol/kg): 0.055 µM·h | C0 ([9]; 40 nmol/kg): 228 nM | clearance ([9]; 40 nmol/kg): 12 mL/min/kg | half-life ([9]; 40 nmol/kg): 30 min | Vd ([9]; 40 nmol/kg, Vss, 40 nmol/kg): 0.31 L/kg | Vd ([9]; 40 nmol/kg, Vz): 0.53 L/kg | AUC(0-inf) ([9]; 400 nmol/kg): 0.532 µM·h | C0 ([9]; 400 nmol/kg): 2130 nM | clearance ([9]; 400 nmol/kg): 12.5 mL/min/kg | half-life ([9]; 400 nmol/kg): 35 min | Vd ([9]; 400 nmol/kg, Vss, 400 nmol/kg): 0.2 L/kg | Vd ([9]; 400 nmol/kg, Vz): 0.64 L/kg
